Assay results from a melting point compilation (Tetko et al.; mined from patent text by program, amines drawn as free bases though some values may be those of a salt).

SMILES	melting point [°C]
Nc1cc(=O)n(CC2CCCCC2)c(=O)n1CC1CCCCC1	138 to 141
CC1(C)COc2cc3c(cc21)C1(CO3)C(=O)N(Cc2ccc(C(F)(F)F)o2)c2ccccc21 (centres undefined)	155 to 160
CCN1c2ncccc2C(=O)Nc2c(C)cc(NCCn3cc[nH]c3=O)nc21	> 300
NC(=O)c1nc(Cl)sc1Cl	153
CN1CCC2(CC1)NC(=S)N(c1ccc(C#N)c(C(F)(F)F)c1)C2=O	229 to 230
Cc1cc(O)n2nc(CN=[N+]=[N-])nc2n1	193 to 194
CC(C)(C)OC(=O)Nc1ccsc1C(=O)O	168 to 169
COCC1CN(c2ccc(C3CCC(CCNC(C)=O)CC3)cc2)C(=O)O1 (racemic)	120 to 122
N#Cc1cn(-c2ccc(C(F)(F)F)cc2)c(=O)n(SC(Cl)(Cl)Cl)c1=O	167 to 168
O=c1cc(-n2ccnc2)c2cc(C(c3ccc(Cl)cc3)n3ccnc3)ccc2[nH]1 (centres undefined)	242
O=C(N1CCC(c2ccncc2)CC1)N1CCN(S(=O)(=O)c2ccc(Cl)cc2)CC1	234 to 235
O=C(c1cc(-c2ccc(Cl)cc2)c(N2CCOCC2)s1)c1cc(-c2ccc(Cl)cc2)c(N2CCOCC2)s1	135 to 136
N#Cc1[nH]c(Br)c(C#N)c1Br	227 to 232
C#CCS(=O)(=O)c1ccc(NC(C)=O)cc1	175 to 179
Cn1c(C(F)(F)F)nn(-c2cc(F)c(C#N)cc2Cl)c1=O	105
CC(=O)C1CCC2C3CCC4=CC(=O)C=CC4(C)C3C(O)CC12CO[N+](=O)[O-] (centres undefined)	162 to 164
NC(=O)c1cc2cc(C(O)(C(F)(F)F)C(F)(F)F)ccc2[nH]1	262 to 263
COc1nccc(-c2c(-c3ccc(F)cc3)ncn2C2CCC(=O)CC2)n1	212 to 214
Cc1noc(NS(=O)(=O)c2c(C)sc3ccccc23)c1C	174 to 176
CC(C)C[C@H]1COCC(=O)N1	69 to 70
COc1c(C)c(N2CCN(c3ccc4c(c3)OCCO4)CC2)c(C)c2c1OC(C)(C)C2	167 to 168
CCCN(CCC)CC(=O)OC1CC2(C)C(C(=O)CO)CCC2C2CCC3CC(O)CCC3(C)C12 (centres undefined)	98 to 102
N#CCc1ccc(NS(=O)(=O)c2cccc(Cl)c2Cl)cc1	202 to 206
NCCc1cc(F)cc(C(F)(F)F)c1	> 170
COc1cc(C=O)ccc1OCc1csc(N2CCCCC2)n1	129 to 130
Cc1c(F)c(N2CCNC(C)C2)cc2c1C(=O)CCN2C1CC1 (centres undefined)	98 to 100
CC(C)(C)c1cc(C=C2SCN(CC#N)C2=O)cc(C(C)(C)C)c1O	186 to 188

SMILES	melting point [°C]
CCc1nc2c(C)c(C#N)c(C)nc2n1-c1ccc(CCNC(=O)NS(=O)(=O)c2ccc(C)cc2)cc1	133
CC(C)c1ccc2c(=O)cc(C(=O)O)[nH]c2c1	> 240
CCCCCCCCCCCCCCCCCCOCC(COC1CCCCO1)NC(C)=O (centres undefined)	52 to 55
CC(C)(C)OC(=O)CNC(=O)c1sc(Nc2ccccc2)c2c1CCc1cnoc1-2	115 to 116
CCN(CC)c1cccc(NC(=O)COC(C)=O)c1C#N	50 to 51
Cc1cccc2c1CCN(C1CN3CCC1CC3)C2=O (racemic)	> 270
C=CCOC(=O)c1ncn2c1[C@@H]1CCCN1C(=O)c1c(Cl)cccc1-2	122 to 123
C=CCN1CCC23c4c5ccc(O)c4OC2C(=NO)CCC3(O)C1C5 (centres undefined)	119
COC(=O)c1cc(-c2ccc(SC)cc2)nn(CC=Cc2ccc(Cl)cc2)c1=O	123 to 126
CCc1cccc(CC)c1NC(=O)CCSc1cc(C(C)(C)C)c(O)c(C(C)(C)C)c1	150 to 152
COc1ccc(N)c(C(=O)Cc2nnnn2C)c1	170 to 172
C#C[C@]1(C)CCc2c(C)c(OC)c(C)c(C)c2O1	94 to 97
Fc1ccc(OC2CCN(CCc3c[nH]c4ccccc34)CC2)cc1	109 to 111
Nc1c(C(=O)c2cc(Cl)ccn2)[nH]c2cc(Cl)ccc12	234 to 235
CCN1c2ncccc2C(N(C)C)=Nc2c(C)cc(C)nc21	150 to 152
O=C(c1ccc(Cl)cc1)c1cc([N+](=O)[O-])ccc1N1CCC(O)CC1	142
Cc1ccc(F)cc1C(=O)Nc1ccc(C(=O)N2CCc3cn[nH]c3-c3sccc32)cc1	310 to 312
CCOC(=O)CN1CCN(c2cc3c(cc2Cl)c(=O)c(C(=O)O)cn3CC)CC1	230 to 232
COc1ccc(C(Cc2ccncc2)c2ccc(C(N)=O)cc2)cc1OC1CCCC1 (centres undefined)	180 to 182
CCc1nc2c(C)cc(C)nc2n1Cc1ccc(C2(C(=O)O)CCOCC2)s1	214 to 215
CCNCCn1c(-c2ccc(Br)cc2)cc2c1CCSC2	84 to 85
COc1cccc(Nc2n[nH]c(N=CN(C)C)c2C#N)c1	227 to 231
Cc1cc(C(C)(C)C)cc(C=NO)c1O	107 to 108
COC(=O)C(=C(C)C)N1C(=O)[C@H]([C@H](C)OC(=O)OCc2ccc([N+](=O)[O-])cc2)[C@@H]1Cl	154 to 157
CC(=O)C=Cn1sc(Cl)cc1=O	137 to 139
COc1ccc(Nc2nc(Nc3cc4c(cc3OC)CCN(CC(=O)N(C)C)CC4)ncc2Cl)c(OC)n1	67 to 76

The next lines start with the values.

melting point [°C]	SMILES
380 to 381	Cc1cccc(-c2nc(NC(=O)c3ccc(C(=O)O)cc3)sc2-c2ccncn2)c1
214 to 215	COC(=O)c1ccc(N2C(=O)CCC2(CN=[N+]=[N-])COC(=O)c2ccccc2)c([N+](=O)[O-])c1 (centres undefined)
168 to 169	CCOC(=O)C(=O)CC(=O)c1cn(Cc2ccncc2)c2ccccc2c1=O
190 to 192	COCc1c(C(=O)OC(CO)CO)ncc2[nH]c3ccc(OCc4ccccc4)cc3c12
118 to 119	CCOC(=O)c1ccc(-c2cccc3cncn23)cc1
303 to 304	COc1cccc(C(=O)O)c1OCCN1CCC(c2cn(Cc3ccoc3)c3cnccc23)CC1
103 to 105	O=C(O)C(=O)c1ccc(OC/C=C/c2ccccc2)cc1
40 to 45	OCC(CCc1ccc(Cl)cc1)Cn1cncn1 (centres undefined)
202 to 204	CCn1cc(C(=O)O)c(=O)c2cc(F)c(N3CCN(C)C(COc4ccccc4)C3)cc21 (centres undefined)
160 to 162	COc1cc(OC)c(-c2cccs2)cc1/C=C/C(=O)c1ccc(S(=O)(=O)NCCCn2ccnc2)cc1
63 to 71	CC(C)[C@H](NC(=O)OCc1ccccc1)C(=O)N[C@@H](C(C)C)[C@@H](O)c1c(-c2ccccc2)c1=O
67 to 68.8	CCCC(C)Oc1ccc(C(=O)O)cc1 (centres undefined)
67 to 69	OCCCCCCCCOc1ccc2ccccc2c1
103 to 105	CN(N=C(Cl)c1c(F)cccc1Cl)S(=O)(=O)c1ccccc1
268 to 269	CN1C(C(=O)Nc2cccc(Br)c2)=C(O)c2ccc3ccccc3c2S1(=O)=O
132 to 135	CC(C)(C)c1cc2c(c(C(C)(C)C)c1)OC(=O)C2c1ccc(OCCO)cc1 (centres undefined)
92 to 94	Cc1c(NC(=O)c2ccc(OC[C@@H]3CCCO3)cc2)ccc2cc(CNC[C@H]3CCCO3)cnc12
128 to 135	CCCC(=O)Nc1nc(CN2CCN(C(c3ccccc3)c3ccccc3)CC2)cs1
159 to 161	CCOC(=O)Nc1c(C(=O)c2ccccc2)[nH]c2cc(Cl)ccc12
234 to 238	O=C1CCC2=C(c3ccccc3)c3cc(Cl)ccc3C2N1 (centres undefined)
120 to 121	CCCCOc1cc(CCS(=O)(=O)NC(=O)OC(C)C)n(Cc2ccc(Cl)cc2Cl)n1
166 to 167	O=[N+]([O-])c1ccc2nc(-c3ccccc3)cc(Cl)c2c1
102 to 103	CCCCCCCCCCCC(=O)c1c[nH]c(C(=O)OC)c1

melting point [°C]	SMILES
143 to 147	OC(c1cccc(C(F)(F)F)c1)C1CCN(CCc2ccccc2)CC1 (centres undefined)
135 to 137	O=C(O)c1ccnc(NC(=O)C(Cc2ccccc2)NP(=O)(O)O)c1 (centres undefined)
128 to 131	CCc1nn(-c2cc(NC(=O)CCOC)ccc2Cl)c(=O)n1Cc1ccc(-c2ccccc2S(=O)(=O)NC(=O)OC(C)(C)C)cc1F
158 to 160	O=c1c(Cl)c(-c2ccncn2)nc2n1CCCN2C[C@@H](O)c1ccccc1
246 to 247	CCCCOc1nc(N)c2[nH]c(=O)n(CCS(=O)(=O)c3cccc(CC(=O)OC)c3)c2n1
132 to 133	O=C(O)c1cc(Oc2ccc(Cl)cc2Cl)ccc1Br
109 to 111	CCCCN(Cc1ccc(-c2ccccc2-c2nnn[nH]2)cc1)c1ncncc1C(=O)OCC
76 to 78	Cc1cc(SC(C)C)c(NC(=O)CCCCCCSc2nc3cccc(C(F)(F)F)c3o2)c(SC(C)C)n1
134	O=C1N(CO)CCN1C(c1ccccc1)c1ccccc1
112 to 115	COc1ccc2c3c(c(=O)oc2c1)CN(Cc1cccc(Cl)c1)CC3
92 to 93	CCCCc1nc(C(C)(C)O)c(C(=O)OCC)n1Cc1ccc(-c2ccccc2C(=O)OC(C)(C)C)cc1
228 to 232	CCc1nccn1-c1ccc(NC(=O)NC)cc1
199	COC(=O)c1c(C(C)C)c(S(=O)(=O)c2ccc(O)cc2)c2ccccn12
56	CCCCCCCCOc1ccc(-c2ccc(OCC(C)OC(=O)C(C)CC)cc2)cc1 (centres undefined)
302 to 305	COc1ccc(OC)c2c(Nc3ccc4cn[nH]c4c3)c(C#N)cnc12
118 to 120	COC(=O)CCn1c(C(=O)O)cc2ccccc21
155 to 157	CCOC(=O)Cc1ccc(-n2c(-c3cccnc3N)nc3ccc(-c4cccnc4)nc32)cc1
167	O=C(Nc1cccc(-c2cc(-c3c(Cl)cccc3Cl)no2)c1)C(Cl)Cl
127 to 128	O=C(NCc1ccccc1)C1CC=CC(O)C1 (centres undefined)
122 to 124	Cc1ccc(S(=O)(=O)OCC2COc3ccc4ccccc4c3O2)cc1 (centres undefined)
141 to 147	CC(=O)N(CCCC(=NNC(N)=S)c1ccccc1)C(C)C
175 to 176	CCOc1cc(N(CC)CC)ccc1C(=O)c1nc2ccccc2nc1C(=O)O
209 to 210	c1ccc(CCOc2ncnc3nc[nH]c23)cc1
